# Test results from patent US11458189B2, “Cytoprotective drugs” (BALMES TRANSPLANTATION, priority 2017, dated 2022).
# Starred links: 1 amine or outer side, 2 acyl side, 3 side chain; linkers in the order of their positions; H or OH if unused. Positions of bridges follow the written chain, without caps; N, C: chain ends. Non-standard residues stand in square brackets, D forms with d. Residues, ends and D or L forms follow the SMILES beside them. ξ: configuration not given here. *: point of attachment. pTerphenylCO(4''-OnC5H11) = CCCCCOc1ccc(-c2ccc(-c3ccc(C(=O)*)cc3)cc2)cc1; Orn(4R-OH,5R-OH) = O=C([C@H](C[C@@H](O)[C@@H](O)N[*:3])N[*:1])[*:2]; hTyr(3S-OH,4S-OH) = N[C@H](C(=O)O)[C@H](O)[C@@H](O)c1ccc(O)cc1; Pro(3S-OH,4S-Me) = C[C@H]1CN[C@H](C(=O)O)[C@H]1O; ξPro(4R-OH) = O=C(O)C1C[C@@H](O)CN1
# System: Human Renal Glomerular Endothelial Cells (HRGEC)
# Experiment: Oxygen and glucose deprivation followed by replenishment, cell survival (calcein AM), HRGEC
# Type: cell-based
# Protocol: Anidulafungin and micafungin were tested on Human Renal Glomerular Endothelial Cells (HRGEC, Innoprot P10665), on Human Renal Proximal Tubular Epithelial Cells (HRPTEpiC, Innoprot P10662), on Human Astrocytes (HA, caltag SC-1800), on Human Cardiac Microvascular Endothelial Cells (HCMEC, Caltag SC-6000), on Human Hepatic Sinusoidal Endothelial Cells (HHSEC, Caltag SC-5000), on Rat Primary Kidney Glomerular Endothelial cells (Cellbiologics, RN-6014G) and on Bovine Brain Microvascular Endothelial Cells (BBMEC, Caltag SC-B100).
# In a first phase, these isolated, purified and cryopreserved cells are thawed and multiplied according to the supplier's recommendations in T75 or T175 flasks pre-coated with 2 μg of fibronectin/[…] (CORNING) for HRGEC, HCMEC, HHSEC and BBMEC, or 2 μg poly-L-lysin/cm^2 (Caltag SC-0403) for HRPTEpiC and HA, or 15 mL/flask 175 cm^2 gelatin-based solution (Cellbiologics) in the presence of endothelial cell supplemented growth medium ECM (P60104, INNOPROT, Caltag, SC-1001) for HRGEC, HCMEC, HHSEC, RPKGEC or BBMEC, or astrocyte cell supplemented growth medium AM (Caltag SC-1801) for HA or epithelial cell supplemented growth medium EpiCM (P60106, INNOPROT) for HRPTEpiC, at 37° C. under 5% CO2 and saturated humidity until their confluency. They are then harvested by trypsinization according to the method described by the supplier for exactly 5 minutes and then reseeded in new flasks a maximum of three times.
# To carry out the oxygen and glucose deprivation test followed by their replenishment, the cells will be seeded in 96-well black plates with transparent flat bottom (GREINER). Once a sufficient number of cells has been obtained to allow seeding of 2000 to 15000 cells per well of 96-well plates depending on the cell type, the cells are seeded in these 96-well plates previously coated with an extracellular matrix as listed above for the flasks. The cells are cultured for 5 to 8 days according to the cell type, in the presence of the same growth medium as in the flask as described above except for HRGEC and HRPTEpiC for which DMEM (DUTSCHER) with 1 g/L of supplemented glucose is used, at 37° C. under 5% CO2 and saturated humidity to obtain confluency.
# On the first day of oxygen and glucose deprivation, (5th, 6th, 7th or 8th day of culture), the culture conditions are drastically changed. The medium of all plates is removed and replaced by DMEM (DUTSCHER) medium without glucose and supplemented only with 1% penicillin-streptomycin (DUTSCHER). Anidulafungin or micafungin dissolved in dimethyl sulfoxide (DMSO) is then added to each well at the desired concentration, resulting in a maximum of 1% DMSO, and the plates are placed under hypoxia at <1% 02 and 5% CO2 at 37° C. for 24 hours of culture. Each compound was tested in a concentration range.
# After 24 hours, the growth medium is changed and replaced by a richer medium, DMEM (DUTSCHER) at 1 g/L glucose and 2% FBS (INNOPROT) and 1% penicillin-streptomycin (DUTSCHER). These media will have been pre-equilibrated at 37° C. in advance. The cells are then returned to culture at 37° C. under 20% 02 and 5% CO2 for 22h.
# After 22 hours of reoxygenation, the potential protective effect of anidulafungin or micafungin is measured by a cell viability test using calcein AM (CORNING), which is a dye substrate. The calcein AM can easily cross the cell membrane of the viable cells. The AM ester groups mask the part of the molecule that chelates calcium. Once inside the cells, the (non-fluorescent) calcein AM is hydrolyzed to (fluorescent) calcein by endogenous esterases. The resulting calcein molecule binds to calcium inside the cell and remains trapped inside the cell. These molecules emit strong green fluorescence when subjected to […] of a particular wavelength (495 nm). Since dead cells lack esterase activity, only living cells are labelled.
# This cell viability test is performed in two steps. […]
# [1] = [Anidulafungin] log μM 0.7781513
# [2] = [Anidulafungin] log μM 1.079181
# [3] = [Anidulafungin] log μM 1.255273
smiles,measurement,setting,value
"CCCCCOc1ccc(-c2ccc(-c3ccc(C(=O)N[C@H]4C[C@@H](O)[C@@H](O)NC(=O)[C@@H]5[C@@H](O)[C@@H](C)CN5C(=O)[C@H]([C@@H](C)O)NC(=O)[C@H]([C@H](O)[C@@H](O)c5ccc(O)cc5)NC(=O)C5C[C@@H](O)CN5C(=O)[C@H]([C@@H](C)O)NC4=O)cc3)cc2)cc1 (stereo partly drawn) [Anidulafungin] ({pTerphenylCO(4''-OnC5H11)}-[Orn(4R-OH,5R-OH)]T[ξPro(4R-OH)][hTyr(3S-OH,4S-OH)]T[Pro(3S-OH,4S-Me)]; lactam 1-C)",Globalfluo assay 1,[Anidulafungin] log μM 0,1595273 arbitrary units
same,Globalfluo assay 2,[Anidulafungin] log μM 0,2299957 arbitrary units
same,Globalfluo assay 3,[Anidulafungin] log μM 0,2320330 arbitrary units
same,Mean globalfluo,[Anidulafungin] log μM 0,2071853 arbitrary units
same,Survival rate (%),[Anidulafungin] log μM 0,−6%
same,Globalfluo assay 1,[Anidulafungin] log μM 0.30103,3108717 arbitrary units
same,Globalfluo assay 2,[Anidulafungin] log μM 0.30103,8079028 arbitrary units
same,Globalfluo assay 3,[Anidulafungin] log μM 0.30103,4587276 arbitrary units
same,Mean globalfluo,[Anidulafungin] log μM 0.30103,5258340 arbitrary units
same,Survival rate (%),[Anidulafungin] log μM 0.30103,7%
same,Globalfluo assay 1,[Anidulafungin] log μM 0.60206,6404501 arbitrary units
same,Globalfluo assay 2,[Anidulafungin] log μM 0.60206,5391467 arbitrary units
same,Globalfluo assay 3,[Anidulafungin] log μM 0.60206,4055726 arbitrary units
same,Mean globalfluo,[Anidulafungin] log μM 0.60206,5283898 arbitrary units
same,Survival rate (%),[Anidulafungin] log μM 0.60206,7%
same,Globalfluo assay 1,[1],1844220 arbitrary units
same,Globalfluo assay 2,[1],8446890 arbitrary units
same,Globalfluo assay 3,[1],6499110 arbitrary units
same,Mean globalfluo,[1],5596740 arbitrary units
same,Survival rate (%),[1],8%
same,Globalfluo assay 1,[Anidulafungin] log μM 0.90309,7152564 arbitrary units
same,Globalfluo assay 2,[Anidulafungin] log μM 0.90309,8021501 arbitrary units
same,Globalfluo assay 3,[Anidulafungin] log μM 0.90309,6792572 arbitrary units
same,Mean globalfluo,[Anidulafungin] log μM 0.90309,7322212 arbitrary units
same,Survival rate (%),[Anidulafungin] log μM 0.90309,15%
same,Globalfluo assay 1,[Anidulafungin] log μM 1,8082278 arbitrary units
same,Globalfluo assay 2,[Anidulafungin] log μM 1,8981812 arbitrary units
same,Globalfluo assay 3,[Anidulafungin] log μM 1,10460790 arbitrary units
same,Mean globalfluo,[Anidulafungin] log μM 1,9174960 arbitrary units
same,Survival rate (%),[Anidulafungin] log μM 1,23%
same,Globalfluo assay 1,[2],12175690 arbitrary units
same,Globalfluo assay 2,[2],10104310 arbitrary units
same,Globalfluo assay 3,[2],9396440 arbitrary units
same,Mean globalfluo,[2],10558813 arbitrary units
same,Survival rate (%),[2],28%
same,Globalfluo assay 1,[Anidulafungin] log μM 1.20412,12170420 arbitrary units
same,Globalfluo assay 2,[Anidulafungin] log μM 1.20412,9545764 arbitrary units
same,Globalfluo assay 3,[Anidulafungin] log μM 1.20412,9735499 arbitrary units
same,Mean globalfluo,[Anidulafungin] log μM 1.20412,10483894 arbitrary units
same,Survival rate (%),[Anidulafungin] log μM 1.20412,28%
same,Globalfluo assay 1,[3],10855790 arbitrary units
same,Globalfluo assay 2,[3],12347330 arbitrary units
same,Globalfluo assay 3,[3],7837444 arbitrary units
same,Mean globalfluo,[3],10346855 arbitrary units
same,Survival rate (%),[3],27%
same,Globalfluo assay 1,[Anidulafungin] log μM 1.30103,10143140 arbitrary units
same,Globalfluo assay 2,[Anidulafungin] log μM 1.30103,10354290 arbitrary units
same,Globalfluo assay 3,[Anidulafungin] log μM 1.30103,10227990 arbitrary units
same,Mean globalfluo,[Anidulafungin] log μM 1.30103,10241807 arbitrary units
same,Survival rate (%),[Anidulafungin] log μM 1.30103,27%
